Results on 13 compounds are retold here after article PMC9369007 (International Journal of Molecular Sciences, 2022).

One may read the IC50 as the concentration that inhibits the measured activity by half. For orientation: melting point means the temperature of the solid-liquid transition.

The subject of one data set is HepG2 cells. The data set can be described thus: MTT cytotoxicity assay, HepG2. As to conditions: Homo sapiens, HepG2, 72 h, read-out: In Vitro Cytotoxicity IC50 HepG2. (In general: Tetrazolium assays rely on reduction of a dye to a coloured formazan, in cell work by metabolically active cells.)
For the next data set, the system named is MCF-7 cells. The experiment in a line: MTT cytotoxicity assay, MCF-7. As to conditions: Homo sapiens, MCF7, 72 h, read-out: In Vitro Cytotoxicity IC50 MCF-7.
A further data set deals with HCT116 cells. The experiment in a line: MTT cytotoxicity assay, HCT116. As to conditions: Homo sapiens, HCT-116, 72 h, read-out: In Vitro Cytotoxicity IC50 HCT116.
A short description of a further data set: in vitro. As to conditions: human, WI38 normal lung fibroblast cells.
In another data set the target is LSD1 demethylase (Homo sapiens, UniProt O60341). The data set can be described thus: LSD1 demethylase inhibition assay.
For a further data set, the system named is LSD1. As to conditions: Figure 1, reported LSD1 inhibitors; cited from earlier work.
The next data set has as its system HepG2 and MCF-7 cells. The experiment in a line: DNA fragmentation, diphenylamine test. Type of data set: cell-based, human. As to conditions: 24 h at IC50 value, untreated control about 4.7 ± 0.2%. How it is done: Apoptosis is characterized by DNA fragmentation, which occurs in all stages of the process. The percentage of fragmented DNA released into the cytoplasm from apoptotic nuclei was determined using a diphenylamine test.
DNA fragmentation was quantitatively determined using a diphenylamine (DPA) reagent according to the method of Boraschi and Maurizi.

[1] abbreviates: LSD1 inhibitory IC50, Table 2, mean ± S.D., at least three tests.
[2] abbreviates: LSD1 inhibition IC50, as quoted in the docking section.

The structures appear in SMILES notation.

Experimental for HCT116 cells: (§1) The in vitro cytotoxic testing of novel derivatives was performed against different three cancer cell lines, HepG2, MCF-7, and HCT116, using standard MTT assay as previously reported [22, 62, 63, 64].
Experimental for HepG2 cells: as §1
Experimental for LSD1 demethylase: The inhibition of LSD1 activity by our tested compounds was evaluated according to a previously reported procedure [65, 66, 67, 68] and as mentioned in the assay kit in Supplementary Materials.

Consider `CC(=O)O[C@H]1C(=O)[C@@]2(C)[C@H]([C@H](OC(=O)c3ccccc3)[C@]3(O)C[C@H](OC(=O)[C@H](O)[C@@H](NC(=O)c4ccccc4)c4ccccc4)C(C)=C1C3(C)C)[C@]1(OC(C)=O)CO[C@@H]1C[C@@H]2O` [Taxol, reference compound], for which the results for the 50% inhibitory concentration (IC50) in the data set on HepG2 cells, in the data set on MCF-7 cells and with HCT116 cells were 4.44 ± 0.24 µM, 7.8 ± 0.42 µM and 7.96 ± 0.38 µM, respectively. The IC50 at 72 h in the data set “in vitro” came out at 11.8 ± 0.44 µM.

Compound `CCn1c(-c2cc(-c3n[nH]c(=S)n3CC)cc(-c3n[nH]c(=S)n3CC)c2)n[nH]c1=S` [Compound 19, 3,3′,3″-(benzene-1,3,5-triyl)tris(4-ethyl-1H-1,2,4-triazole-5(4H)-thione)] returned a melting point of 266 to 268 °C. At LSD1 demethylase (setting [1]), this compound had a half-maximal inhibitory concentration (IC50) of 0.17 ± 0.008 µM. Besides, the concentration for half-maximal inhibition (IC50) in the data set with HepG2 cells worked out at 55.3 ± 0.44 µM. The IC50 with MCF-7 cells is 9.66 ± 0.76 µM. Also, in the data set with HCT116 cells, the 50% inhibitory concentration (IC50) was 21.6 ± 0.16 µM.

Consider `Cn1c(-c2cc(-c3n[nH]c(=S)n3C)cc(-c3n[nH]c(=S)n3C)c2)n[nH]c1=S` [Compound 18, 3,3′,3″-(benzene-1,3,5-triyl)tris(4-methyl-1H-1,2,4-triazole-5(4H)-thione)], for which the melting point is 279 to 281 °C. The compound further yielded an IC50 at LSD1 demethylase (setting [1]) of 1.51 ± 0.075 µM. Also, the IC50 with HepG2 cells came to 26.1 ± 0.76 µM. In addition, the IC50 in the data set with MCF-7 cells worked out at 23.9 ± 0.52 µM. Also, the IC50 in the data set on HCT116 cells was found to be 38.6 ± 0.75 µM.

Take `CCCSc1nc(Sc2nnc(C)s2)c2nnn(CCO)c2n1` [Compound 7]: the IC50 in the data set on LSD1 is 3.93 µM.

With `S=c1[nH]nc(-c2cc(-c3n[nH]c(=S)n3-c3ccccc3)cc(-c3n[nH]c(=S)n3-c3ccccc3)c2)n1-c1ccccc1` [Compound 23, 3,3′,3″-(benzene-1,3,5-triyl)tris(4-phenyl-1H-1,2,4-triazole-5(4H)-thione)], the melting point fell in the range of 229 to 230 °C. Inhibition against LSD1 demethylase (setting [2]) was half-maximal at 0.0651 µM (IC50). The compound further came in with an IC50 on LSD1 demethylase (setting [1]) of 0.065 ± 0.003 µM. Also, the half-maximal inhibitory concentration (IC50) in the data set with HepG2 cells is 5.49 ± 0.38 µM. Also, the IC50 in the data set with MCF-7 cells came out at 26.1 ± 0.69 µM. Moreover, the IC50 in the data set on HCT116 cells came out at 2.01 ± 0.91 µM.

For the compound `S=c1[nH]nc(-c2cc(-c3n[nH]c(=S)n3Cc3ccccc3)cc(-c3n[nH]c(=S)n3Cc3ccccc3)c2)n1Cc1ccccc1` [Compound 22, 3,3′,3″-(benzene-1,3,5-triyl)tris(4-benzyl-1H-1,2,4-triazole-5(4H)-thione)], the melting point is 240 to 241 °C. For the same compound, the concentration for half-maximal inhibition (IC50) on LSD1 demethylase (setting [2]) stood at 0.0464 µM. For the same compound, at LSD1 demethylase (setting [1]), the IC50 came to 0.074 ± 0.002 µM. Also, the half-inhibitory concentration (IC50) in the data set with HepG2 cells amounted to 8.23 ± 0.85 µM. The 50% inhibitory concentration (IC50) with MCF-7 cells was found to be 2.65 ± 0.23 µM. Besides, the IC50 with HCT116 cells stood at 5.27 ± 0.16 µM. For the same compound, in the data set “in vitro”, the IC50 at 72 h was 16 ± 0.52 µM.

Take `c1ccc(Nc2nnc(-c3cc(-c4nnc(Nc5ccccc5)s4)cc(-c4nnc(Nc5ccccc5)s4)c3)s2)cc1` [Compound 28, 5,5′,5″-(benzene-1,3,5-triyl)tris(N-phenyl-1,3,4-thiadiazol-2-amine)]: the melting point was in the range of 204 to 205 °C. In addition, the IC50 against LSD1 demethylase (setting [1]) was found to be 0.21 ± 0.01 µM. Further, the IC50 with HepG2 cells came out at 25.6 ± 0.18 µM. In the data set on MCF-7 cells, the IC50 turned out to be 2.34 ± 2.3 µM. The 50% inhibitory concentration (IC50) with HCT116 cells is 110 ± 0.85 µM.

`c1c(-c2nnc(NC3CCCCC3)s2)cc(-c2nnc(NC3CCCCC3)s2)cc1-c1nnc(NC2CCCCC2)s1` [Compound 26, 5,5′,5″-(benzene-1,3,5-triyl)tris(N-cyclohexyl-1,3,4-thiadiazol-2-amine)] showed a melting point of 218 to 219 °C. At LSD1 demethylase (setting [1]), this compound displayed a concentration for half-maximal inhibition (IC50) of 0.311 ± 0.015 µM. For the same compound, the IC50 in the data set with HepG2 cells came to 95.7 ± 3.1 µM. Also, the IC50 in the data set on MCF-7 cells is 17.1 ± 3.1 µM. Moreover, in the data set with HCT116 cells, the IC50 came to 17.6 ± 0.71 µM.

`CCNc1nnc(-c2cc(-c3nnc(NCC)s3)cc(-c3nnc(NCC)s3)c2)s1` [Compound 25, 5,5′,5″-(benzene-1,3,5-triyl)tris(N-ethyl-1,3,4-thiadiazol-2-amine)] returned a melting point of 233 to 234 °C. For the same compound, at LSD1 demethylase (setting [1]), the IC50 was 0.14 ± 0.007 µM. In the data set on HepG2 cells, the IC50 came out at 13 ± 0.71 µM. Also, the half-maximal inhibitory concentration (IC50) with MCF-7 cells was 28.1 ± 1.1 µM. Besides, the IC50 in the data set with HCT116 cells is 28.9 ± 0.32 µM.

`CNc1nnc(-c2cc(-c3nnc(NC)s3)cc(-c3nnc(NC)s3)c2)s1` [Compound 24, 5,5′,5″-(benzene-1,3,5-triyl)tris(N-methyl-1,3,4-thiadiazol-2-amine)] showed a melting point of 247 to 248 °C. Besides, half-maximal inhibition at LSD1 demethylase (setting [1]) (IC50) required 0.45 ± 0.022 µM. The IC50 in the data set with HepG2 cells was 6.47 ± 0.69 µM. The IC50 with MCF-7 cells was found to be 9.2 ± 0.31 µM. For the same compound, in the data set with HCT116 cells, the IC50 was 18.1 ± 1.05 µM.

With `S=c1[nH]nc(-c2cc(-c3n[nH]c(=S)n3C3CCCCC3)cc(-c3n[nH]c(=S)n3C3CCCCC3)c2)n1C1CCCCC1` [Compound 20, 3,3′,3″-(benzene-1,3,5-triyl)tris(4-cyclohexyl-1H-1,2,4-triazole-5(4H)-thione)], the melting point was in the range of 251 to 252 °C. Also, the “Percentage of DNA fragmentation” value in the data set with HepG2 and MCF-7 cells is “approximately 28.5 ± 1.5%”. On LSD1 demethylase (setting [1]), this compound came in with an IC50 of 0.137 ± 0.006 µM. In addition, the IC50 in the data set with HepG2 cells was found to be 2.65 ± 0.69 µM. Also, the 50% inhibitory concentration (IC50) in the data set with MCF-7 cells stood at 13.7 ± 0.41 µM. Further, in the data set on HCT116 cells, the IC50 came to 10.1 ± 0.37 µM.

In turn, `C=CCn1c(-c2cc(-c3n[nH]c(=S)n3CC=C)cc(-c3n[nH]c(=S)n3CC=C)c2)n[nH]c1=S` [Compound 21, 3,3′,3″-(benzene-1,3,5-triyl)tris(4-allyl-1H-1,2,4-triazole-5(4H)-thione)] had a melting point of 287 to 288 °C. Further, the IC50 on LSD1 demethylase (setting [1]) was found to be 0.32 ± 0.016 µM. For the same compound, the IC50 with HepG2 cells amounted to 2.36 ± 0.34 µM. In addition, the IC50 in the data set on MCF-7 cells was 5.83 ± 0.18 µM. Also, the IC50 in the data set on HCT116 cells worked out at 3.56 ± 0.22 µM.

`Cc1ccc(Cn2cc(CSC(=S)N3CCN(C(=O)OC(C)(C)C)CC3)nn2)cc1` [Compound 8]: the concentration for half-maximal inhibition (IC50) with LSD1 is 0.65 µM.
